Experimental findings from patent US6215002A, “Pyrrolopyrrolone derivatives as inhibitors of neutrophil elastase” (priority 1996, dated 2001) are described below.

The subject of assay [1] is Intracellular elastase. Briefly: Oral in vivo model using IL-8 induced lung infiltrates for the assessment of intracellular elastase inhibition (hamster test). As to conditions: effective dose of less than 40 mg/kg, IL-8 intratracheal. As to the method: An Oral in vivo Model Using IL-8 Induced Lung Infiltrates For the Assessment of Intracellular Elastase Inhibition
Adult hamsters (100-150 g) are randomised into groups (n=4) and fasted overnight. Under gaseous anaesthetic (3% isofluorane) animals are dosed orally with 1 mL/100 g water as vehicle or containing predissolved compounds. Either at the same time, or subsequently under anaesthetic, animals are dosed intratracheally with 1 ug recombinant human IL-8 in 100 uL sterile saline. Six hours after IL-8 dosing animals are sacrificed using intrapertoneal pentobarbitone. The lungs are ravaged with 2×2.5 mL sterile saline and femurs are removed by dissection.
Intracellular elastase is prepared from neutrophils collected by lavage and from femoral bone marrow. This is achieved by sonication of the neutrophils and centrifugation to yield intracellular granules. These are disrupted by freeze/thawing and sonication. Elastase and myeloperoxidase assays are then performed on these samples to assess the efficacy of the compounds and to normalise for neutrophil recovery.

The target in assay [2] is T1, human neutrophil elastase (Homo sapiens, UniProt P08246).
T1 sequence (P08246 30-267): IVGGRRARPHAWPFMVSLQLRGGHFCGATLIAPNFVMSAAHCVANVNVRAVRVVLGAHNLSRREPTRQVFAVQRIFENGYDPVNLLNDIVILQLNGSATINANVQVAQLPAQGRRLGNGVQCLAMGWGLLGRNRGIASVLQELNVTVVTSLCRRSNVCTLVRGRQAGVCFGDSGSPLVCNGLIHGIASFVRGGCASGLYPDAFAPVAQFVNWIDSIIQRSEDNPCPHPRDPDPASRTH
The assay is described as follows: In vitro assay of human neutrophil elastase (HNE). It counts as biochemical. As to conditions: 118 nM purified human neutrophil elastase, pH 8.6, 15 min incubation at 30° C., MeO-succinyl-alanyl-alanyl-prolyl-valyl-p-nitroanilide substrate; read-out: HNE IC50. Put shortly: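 Residual activity was taken as the 10 min rate of absorbance rise at 405 nm after adding 0.6 mM MeO-succinyl-AAPV-p-nitroanilide. Curve fitting of activity against concentration gave IC50.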

Counter-ions that a name gives are not always drawn.

On to `CCC[C@H]1C(=O)N(S(=O)(=O)c2ccc3ccccc3c2)[C@H]2CCN(C(=O)CCN3CCCCC3)[C@H]12` (relative stereo) [Example 2, rel-(3R,3aR,6aS)-1-(Naphthalene-2-sulfonyl)-4-(3-piperidin-1-yl-propionyl)-3-propyl-hexahydro-pyrrolo[3,2-b]pyrrol-2-one hydrochloride], for which, in assay [1], the duration of effect result was “at least 6 hours”. In assay [2], the concentration for half-maximal inhibition (IC50) was 137 nM.

As to `CCC[C@H]1C(=O)N(S(C)(=O)=O)[C@H]2CCN(C(=O)CCN3CCCCC3)[C@H]12` (relative stereo) [Example 29, rel-(3R,3aR,6aS)-1-Methanesulfonyl-4-(3-piperidin-1-yl-propionyl)-3-propyl-hexahydro-pyrrolo[3,2-b]pyrrol-2-one], in assay [1], the duration of effect result is “at least 6 hours”. Also, in assay [2], the IC50 came to 139 nM.

`CCC[C@H]1C(=O)N(S(C)(=O)=O)[C@H]2CCN(C(=O)/C=C/CN3CCCCC3)[C@H]12` (relative stereo) [Example 57, rel-(3R,3aR,6aS)-1-Methanesulfonyl-4-(4-piperidin-1-yl-but-2-(E)-enoyl-3-propyl-hexahydro-pyrrolo[3,2-b]pyrrol-2-one hydrochloride]: the duration of effect result in assay [1] is “at least 6 hours”. The IC50 in assay [2] came to 27 nM.

In the case of `CCC[C@H]1C(=O)N(S(C)(=O)=O)[C@H]2CCN(C(=O)CCCCCN3CCOCC3)[C@H]12.O=C(O)C(O)C(O)C(=O)O` (relative stereo) [Example 58, rel-(3R,3aR,6aS)-1-Methanesulfonyl-4-(6-morpholin-4-yl-hexanoyl)-3-propylhexahydro-pyrrolo[3,2-b]pyrrol-2-one 2,3-dihydroxysuccinate], in assay [1], the duration of effect entry is “at least 6 hours”. Besides, in assay [2], the IC50 was found to be 72 nM.

As for `CCC[C@H]1C(=O)N(S(C)(=O)=O)[C@H]2CCN(C(=O)CCCCCN3CCCCCC3)[C@H]12` (relative stereo) [Example 59, hydrochloride], in assay [1], the duration of effect entry is given as “at least 6 hours”. In assay [2], the half-inhibitory concentration (IC50) turned out to be 39 nM. Take `CC(C)[C@H]1C(=O)N(S(C)(=O)=O)[C@H]2CCN(C(=O)CCCCCN3CCCCCC3)[C@H]12` (relative stereo) [Example 60, rel-(3R,3aR,6aS)-4-(6-Azepin-1-yl-hexanoyl-3-isopropyl-1-methanesulfonyl)-hexahydro-pyrrolo[3,2-b]pyrrol-2-one hydrochloride]: in assay [1], the duration of effect result is listed as “at least 6 hours”. Besides, in assay [2], the IC50 was 47 nM. `CC(C)[C@H]1C(=O)N(S(C)(=O)=O)[C@H]2CCN(C(=O)CCN3CCCCC3)[C@H]12` (relative stereo) [Example 61, rel-(3R,3aR,6aS)-3-isopropyl-1-methanesulfonyl-4-(3-piperidin-1yl-propionyl-hexahydro-pyrrolo[3,2-b]pyrrol-2-one hydrochloride]: the duration of effect result in assay [1] is “at least 6 hours”. In assay [2], the IC50 amounted to 242 nM. On the same counts, the results for `CCC[C@H]1C(=O)N(S(C)(=O)=O)[C@H]2CCN(C(=O)c3ccc(CN4CCCCC4)cc3)[C@H]12` (relative stereo) [Example 62, rel-(3R,3aR,6aS)-1-Methanesulfonyl-1-4-(4-piperidin-1-ylmethyl-benzoyl)-3-propyl-hexahydro-pyrrolo[3,2-b]pyrrol-2-one] are “at least 6 hours” and 10 nM. In the case of `CCC[C@H]1C(=O)N(S(C)(=O)=O)[C@H]2CCN(S(=O)(=O)c3ccc(NC(C)=O)cc3)[C@H]12` (relative stereo) [Example 63, rel-N-[4-(4-Methanesulfonyl-5-oxo-6R-propyl-hexahydro-(3aS,6aR)-pyrrolo[3,2-b]pyrrole-1-sulfonyl)phenyl]-acetamide], the duration of effect result in assay [1] was “at least 6 hours”. Also, the IC50 in assay [2] is 6 nM.

`CC(C)[C@H]1C(=O)N(S(C)(=O)=O)[C@H]2CCN(C(=O)/C=C/CN3CCCCC3)[C@H]12.Cl` (relative stereo) [Example 135, rel-(3R,3aR,6aS)-3-Isopropyl-1-methanesulfonyl-4-(4-piperidin-1-yl-but-2E-enoyl)-hexahydro-pyrrolo[3,2-b]pyrrol-2-one hydrochloride]: in assay [1], the duration of effect entry was “at least 6 hours”.

As to `CC(C)[C@H]1C(=O)N(S(C)(=O)=O)[C@H]2CCN(C(=O)/C=C/CN3CCCCCC3)[C@H]12` (relative stereo) [Example 136, hydrochloride], in assay [1], the duration of effect entry is recorded as “at least 6 hours”. For the same compound, the IC50 in assay [2] stood at 22 nM. As to `CC(C)[C@H]1C(=O)N(S(C)(=O)=O)[C@H]2CCN(C(=O)/C=C/CNC3CC3)[C@H]12.Cl` (relative stereo) [Example 137, rel-(3R,3aR,6aS)-4-(4-Cyclopropylamino-but-2E-enoyl)-3-isopropyl-1-methanesulfonyl-hexahydro-pyrrolo[3,2-b]pyrrol-2-one hydrochloride], in assay [1], the duration of effect result is on record as “at least 6 hours”. Further, the IC50 in assay [2] was found to be 45 nM. `CC(=O)N1CCN(C/C=C/C(=O)N2CC[C@H]3[C@H]2[C@@H](C(C)C)C(=O)N3S(C)(=O)=O)CC1.Cl` (relative stereo) [Example 138, rel-(3R,3aR,6aS)-4-[4-(4-Acetyl-piperazin-1-yl)-but-2E-enoyl]-3-isopropyl-1-methanesulfonyl-hexahydro-pyrrolo[3,2-b]pyrrol-2-one hydrochloride]: the duration of effect result in assay [1] was “at least 6 hours”. Besides, the IC50 in assay [2] worked out at 42 nM. Regarding `CC(C)[C@H]1C(=O)N(S(C)(=O)=O)[C@H]2CCN(C(=O)/C=C/CN3C(C)CCCC3C)[C@H]12.Cl` (relative stereo) [Example 139, rel-(3R,3aR,6aS)-4-[4-(2,6-Dimethyl-piperidin-1-yl)-but-2E-enoyl]-3-isopropyl-1-methanesulfonyl-hexahydro-pyrrolo[3,2-b]pyrrol-2-one hydrochloride], in assay [1], the duration of effect result is given as “at least 6 hours”. In assay [2], the IC50 is 55 nM. For the compound `COC(=O)[C@@H]1CCCN1C/C=C/C(=O)N1CC[C@H]2[C@H]1[C@@H](C(C)C)C(=O)N2S(C)(=O)=O` (relative stereo) [Example 140, 1-[4-(rel-6R-Isopropyl-4-methanesulfonyl-5-oxo-hexahydro-(3aS,6aR)-pyrrolo[3,2-b]pyrrol-1-yl)-4-oxo-but-2E-enyl]-pyrrolidine-2S-carboxylic acid methyl ester hydrochloride], in assay [1], the duration of effect entry is “at least 6 hours”. In addition, the IC50 in assay [2] is 36 nM. For the compound `CCCN(C)C/C=C/C(=O)N1CC[C@H]2[C@H]1[C@@H](C(C)C)C(=O)N2S(C)(=O)=O.Cl` (relative stereo) [Example 141, rel-(3R,3aR,6aS)-3-Isopropyl-1-methanesulfonyl-4-[4-(methyl-propyl-amino)-but-2E-enoyl]-hexahydro-pyrrolo[3,2-b]pyrrol-2-one hydrochloride], the duration of effect entry in assay [1] is recorded as “at least 6 hours”. Moreover, the 50% inhibitory concentration (IC50) in assay [2] was found to be 176 nM. `CC(C)[C@H]1C(=O)N(S(C)(=O)=O)[C@H]2CCN(C(=O)/C=C/CN3CCOCC3)[C@H]12.Cl` (relative stereo) [Example 142, rel-(3R,3aR,6aS)-3-isopropyl-1-methanesulfonyl-4-(4-morpholin-4-yl-but-2E-enoyl)-hexahydro-pyrrolo[3,2-b]pyrrol-2-one hydrochloride]: the duration of effect result in assay [1] was “at least 6 hours”. In addition, the IC50 in assay [2] was 55 nM. On to `CC(C)[C@H]1C(=O)N(S(C)(=O)=O)[C@H]2CCN(C(=O)/C=C/CN3CCN(C)CC3)[C@H]12.Cl` (relative stereo) [Example 143, rel-(3R,3aR,6aS)-3-Isopropyl-1-methanesulfonyl-4-[4-(4-methyl-piperazin-1-yl)-but-2E-enoyl]-hexahydro-pyrrolo[3,2-b]pyrrol-2-one hydrochloride], for which, in assay [1], the duration of effect entry is recorded as “at least 6 hours”. The IC50 in assay [2] is 33 nM. Turning to `CCC[C@H]1C(=O)N(S(C)(=O)=O)[C@H]2CCN(C(=O)CCN3CCCCC3)[C@H]12` [Example 116, (3R,3aR,6aS)-1-Methanesulfonyl-4-(3-piperidin-1-yl-propionyl)-3-propyl-hexahydro-pyrrolo[3,2-b]pyrrol-2-one hydrochloride], in assay [2], the IC50 turned out to be 417 nM.

`CC(C)[C@@H]1C(=O)N(S(C)(=O)=O)[C@@H]2CCN(C(=O)/C=C/CN3CCCCC3)[C@H]21.Cl` [Example 154, (3S,3aS,6aR)-3-Isopropyl-1-methanesulfonyl-4-(4-piperidin-1-yl-but-2E-enoyl)-hexahydro-pyrrolo[3,2-b]pyrrol-2-one hydrochloride]: the duration of effect entry in assay [1] was “at least 6 hours”. Turning to `CC(C)[C@H]1C(=O)N(S(C)(=O)=O)[C@H]2CCN(C(=O)/C=C/CN3CCCCC3)[C@H]12.Cl` [Example 155, (3R,3aR,6aS)-3-Isopropyl-1-methanesulfonyl-4-(4-piperidin-1-yl-but-2E-enoyl)-hexahydro-pyrrolo[3,2-b]pyrrol-2-one hydrochloride], the duration of effect result in assay [1] is “at least 6 hours”. As to “rel-(3aS,6R,6aR)-6-Allyl-4-benzylsulfamoyl-5-oxo-hexahydro-pyrrolo[3,2-b]pyrrole-1-carboxylic acid benzyl ester [Example 19]”, the IC50 in assay [2] is 5230 nM.
